The target in test [1] is Yeast PGI (Saccharomyces cerevisiae, UniProt P12709). Particulars: cited from earlier work.
Test [2] deals with T. brucei PGI (Trypanosoma brucei brucei, UniProt P13377). Particulars: cited from earlier work.
Test [3] has as its target yeast phosphoglucose isomerase (Saccharomyces cerevisiae, UniProt P12709). Particulars: cited from earlier work.
Test [4] concerns the target T. brucei phosphoglucose isomerase (Trypanosoma brucei brucei, UniProt P13377). Particulars: cited from earlier work.
In test [5] the target is Rabbit phosphoglucose isomerase (Oryctolagus cuniculus, UniProt Q9N1E2). Particulars: low ionic strength, cited from earlier work.
Test [6] concerns A. fumigatus phosphoglucose isomerase, ketol-isomerase, and N-acetyltransferase. In words: Colorimetric CoA(GlcNAc-6-P) formation assay in crude A. fumigatus lysates. Particulars: added to crude A. fumigatus lysates, FIG. 5. The test is classed as biochemical, Aspergillus fumigatus. The method, then:
A. fumigatus ATCC16424 (a human clinical isolate) was inoculated into liquid YG medium [1% (w/v) yeast extract and 1% (w/v) glucose] with 1×10^7 conidia per/mL (final concentration), and incubated for 18 hours at 37° C. with shaking (250 rpm). Hyphae were harvested by vacuum filtration over Whatman No. 2 filter paper, washed twice with ice-cold water, quick-frozen in dry ice, and stored at −80° C.
Frozen A. fumigatus hyphae were thawed and disrupted by bead-beating (6×30 seconds pulses with 2 minutes cooling between each pulse) using 0.5 mm zirconium beads in KI buffer (600 mM sucrose, 1 mM KCl, 1 mM EDTA, 50 mM PIPES, pH 6.8). The lysates were centrifuged at 1,000×g for 10 minutes at 4° C. The supernatants were stored at −80° C. and used as enzyme sources. The protein concentration of the supernatants was determined using the BioRad protein assay kit.
Reactions were performed in 96-well flat bottom microtiter plates containing 10 mM Glc-6-P, 10 mM glutamine, 200 μM AcCoA, and 0.25 mg/mL cell lysate of A. fumigatus at pH 6.8 in a final volume of 50 μL. […] After incubation for 10 minutes at room temperature, the OD412 was measured using a microtiter plate reader. […] The amount of CoA formed by reaction mixtures was calculated from the standard curve. […]

The target in test [7] is Chitin synthase. Particulars: competitive substrate inhibitors of chitin synthase; cited from earlier work.
[8] abbreviates: read-out: Fru-6-P Km, low ionic strength.
Where [9] appears, read: competitive inhibitor, low ionic strength, read-out: Gluconate-6-P Ki.

The values below come from US6743598B2, “Methods for the identification of fungal glucose utilization inhibitors and antifungal agents” (priority 2001, dated 2004).

Entries after “also recorded” stand apart in the source; their conditions may differ.

Sequence of T. brucei PGI (P13377 whole entry): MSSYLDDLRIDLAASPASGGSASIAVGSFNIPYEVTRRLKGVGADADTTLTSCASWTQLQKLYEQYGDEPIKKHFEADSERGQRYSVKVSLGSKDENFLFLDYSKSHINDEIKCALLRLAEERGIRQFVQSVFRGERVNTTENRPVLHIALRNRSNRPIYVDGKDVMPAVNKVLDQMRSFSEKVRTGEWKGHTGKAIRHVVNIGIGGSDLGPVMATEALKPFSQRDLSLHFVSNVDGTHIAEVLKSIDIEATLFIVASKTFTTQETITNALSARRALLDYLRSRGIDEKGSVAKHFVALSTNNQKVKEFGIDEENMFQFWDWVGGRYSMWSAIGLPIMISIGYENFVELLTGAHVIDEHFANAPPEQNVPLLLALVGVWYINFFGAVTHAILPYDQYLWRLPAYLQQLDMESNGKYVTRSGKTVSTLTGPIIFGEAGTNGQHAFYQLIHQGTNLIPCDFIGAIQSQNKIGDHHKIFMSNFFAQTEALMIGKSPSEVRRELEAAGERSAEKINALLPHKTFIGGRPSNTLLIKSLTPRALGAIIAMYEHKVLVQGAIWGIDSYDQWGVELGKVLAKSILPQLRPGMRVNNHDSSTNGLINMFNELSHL
Sequence of yeast phosphoglucose isomerase (P12709 2-554): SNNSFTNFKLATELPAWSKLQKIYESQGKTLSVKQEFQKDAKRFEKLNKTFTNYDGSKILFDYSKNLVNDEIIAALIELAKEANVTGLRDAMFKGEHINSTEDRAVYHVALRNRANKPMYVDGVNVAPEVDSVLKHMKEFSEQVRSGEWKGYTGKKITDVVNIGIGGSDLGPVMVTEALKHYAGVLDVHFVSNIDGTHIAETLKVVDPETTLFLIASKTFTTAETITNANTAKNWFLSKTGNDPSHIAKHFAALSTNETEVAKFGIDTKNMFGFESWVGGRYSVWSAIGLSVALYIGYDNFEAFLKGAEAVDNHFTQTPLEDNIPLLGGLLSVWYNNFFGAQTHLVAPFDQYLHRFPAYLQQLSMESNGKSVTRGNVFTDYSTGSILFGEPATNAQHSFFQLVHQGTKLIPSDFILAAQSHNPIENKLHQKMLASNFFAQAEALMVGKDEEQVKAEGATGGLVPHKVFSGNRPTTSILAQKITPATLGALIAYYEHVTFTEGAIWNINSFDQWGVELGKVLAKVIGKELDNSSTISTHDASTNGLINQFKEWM
Sequence of Yeast PGI (P12709 2-554): as above
Sequence of T. brucei phosphoglucose isomerase (P13377 whole entry): as the sequence (P13377 whole entry) above

As to `O=C(NO)[C@@H](O)[C@H](O)[C@H](O)COP(=O)(O)O` [D-Arabinohydroxamic acid-5-phosphate], in test [1], the Ki is 0.23 ± 0.02 µM and the Km/Ki was 300. Moreover, in test [2] (T. brucei PGI), the Ki was 0.05 ± 0.009 µM and the Km/Ki is reported as 2060. Further, the “specificity for T. brucei phosphoglucose isomerase versus yeast isomerase” value in test [2] (T. brucei versus yeast) is given as 4.6 fold.
Take `O=C(CO)[C@@H](O)[C@H](O)[C@H](O)COP(=O)(O)O` [Fru-6-P, fructose-6-phosphate]: the Km is 167 ± 48 µM in test [3] (setting [8]), 122 ± 45 µM in test [4] (setting [8]) and 119 ± 28 µM in test [5] (read-out: Fru-6-P Km).
Turning to `O=C(O)[C@H](O)[C@@H](O)[C@H](O)[C@H](O)COP(=O)(O)O` [Gluconate-6-P, gluconate-6-phosphate], the Ki is 480 ± 120 µM in test [3] (setting [9]); 140 ± 30 µM in test [4] (setting [9]); 120 ± 30 µM in test [5] (competitive inhibitor, read-out: Gluconate-6-P Ki). Further, the “inhibition of CoA (GlcNAc-6-P) formation” value in test [6] is reported as “inhibited the formation of CoA (GlcNAc-6-P) in a dose-dependent manner; also recorded: inhibited the production of CoA in a dose dependent manner”.
Take polyoxins: the “inhibition constants (Ki)” value in test [7] is reported as “in the μM range”.
As for “uridine diphosphate-N-acetyl glucosamine [UDP-GlcNAc]”, in test [6], the “inhibition of CoA (GlcNAc-6-P) formation” value is “inhibited the formation of CoA (GlcNAc-6-P) in a dose-dependent manner; also recorded: inhibited the production of CoA in a dose dependent manner”.

What is called Ki is a measure of affinity in units of concentration, obtained from inhibition or displacement. For orientation: Km means the concentration of substrate that gives half-maximal velocity.
